Consider three compounds from publication PMC4774911, “Biochemical Screening of Five Protein Kinases from Plasmodium falciparum against 14,000 Cell-Active Compounds” (PLoS ONE, 2016).

Each structure is given as a SMILES string. Where “and” joins values, the source holds several entries; their conditions need not be identical. Identical values can stand only once.

Experiment in all cases: biochemical
Common to all, as to design: endogenous in cells; host or cells: K562 cell extract; species or system K562 (extract); replicate k of n = 2 (each experiment ID is one independent experiment; two experiment IDs per compound)
What all share (details): read-out: KDapp

Assay [1] concerns the target KIAA0999 (Homo sapiens, UniProt Q9Y2K2).
Assay [2] deals with PRKCB (Homo sapiens, UniProt P05771).
Sequence of PRKCB (P05771 whole entry): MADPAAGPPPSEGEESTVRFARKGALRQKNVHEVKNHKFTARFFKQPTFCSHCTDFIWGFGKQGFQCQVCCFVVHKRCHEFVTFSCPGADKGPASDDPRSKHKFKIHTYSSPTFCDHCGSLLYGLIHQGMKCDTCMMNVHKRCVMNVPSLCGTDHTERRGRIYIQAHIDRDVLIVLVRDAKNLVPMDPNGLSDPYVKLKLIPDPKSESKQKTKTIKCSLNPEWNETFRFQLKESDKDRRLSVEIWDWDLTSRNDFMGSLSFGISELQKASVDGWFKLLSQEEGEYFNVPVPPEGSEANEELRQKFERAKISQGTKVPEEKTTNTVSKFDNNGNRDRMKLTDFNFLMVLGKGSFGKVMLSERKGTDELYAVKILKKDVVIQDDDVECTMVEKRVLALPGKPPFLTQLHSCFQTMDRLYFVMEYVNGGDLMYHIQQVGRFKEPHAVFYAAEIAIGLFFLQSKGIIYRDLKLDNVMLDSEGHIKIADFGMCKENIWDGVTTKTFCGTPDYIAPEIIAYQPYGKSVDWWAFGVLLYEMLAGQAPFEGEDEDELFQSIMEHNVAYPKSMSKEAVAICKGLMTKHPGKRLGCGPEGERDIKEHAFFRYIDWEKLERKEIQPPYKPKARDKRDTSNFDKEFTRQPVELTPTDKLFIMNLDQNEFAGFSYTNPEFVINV
Assay [3] addresses T1, MAP3K2 (Homo sapiens, UniProt Q9Y2U5).
T1 sequence (Q9Y2U5 1-619): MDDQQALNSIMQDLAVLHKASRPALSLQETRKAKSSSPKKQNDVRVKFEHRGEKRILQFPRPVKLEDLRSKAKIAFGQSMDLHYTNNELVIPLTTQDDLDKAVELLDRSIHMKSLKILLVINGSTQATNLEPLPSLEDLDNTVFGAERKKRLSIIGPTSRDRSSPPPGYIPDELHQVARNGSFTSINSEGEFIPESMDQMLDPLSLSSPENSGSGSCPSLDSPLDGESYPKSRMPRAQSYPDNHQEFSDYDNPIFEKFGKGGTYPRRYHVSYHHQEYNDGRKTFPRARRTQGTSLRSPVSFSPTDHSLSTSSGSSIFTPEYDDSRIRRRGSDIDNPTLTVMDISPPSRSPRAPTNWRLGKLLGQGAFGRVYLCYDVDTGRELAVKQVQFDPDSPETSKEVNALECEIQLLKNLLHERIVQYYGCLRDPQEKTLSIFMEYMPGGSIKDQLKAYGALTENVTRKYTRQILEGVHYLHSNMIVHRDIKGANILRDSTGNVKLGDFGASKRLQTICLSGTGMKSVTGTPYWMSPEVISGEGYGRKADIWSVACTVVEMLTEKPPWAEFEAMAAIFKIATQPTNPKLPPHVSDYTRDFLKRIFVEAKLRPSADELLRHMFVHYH

The target in assay [4] is CDK7 (Homo sapiens, UniProt P50613).
Sequence of CDK7 (P50613 whole entry): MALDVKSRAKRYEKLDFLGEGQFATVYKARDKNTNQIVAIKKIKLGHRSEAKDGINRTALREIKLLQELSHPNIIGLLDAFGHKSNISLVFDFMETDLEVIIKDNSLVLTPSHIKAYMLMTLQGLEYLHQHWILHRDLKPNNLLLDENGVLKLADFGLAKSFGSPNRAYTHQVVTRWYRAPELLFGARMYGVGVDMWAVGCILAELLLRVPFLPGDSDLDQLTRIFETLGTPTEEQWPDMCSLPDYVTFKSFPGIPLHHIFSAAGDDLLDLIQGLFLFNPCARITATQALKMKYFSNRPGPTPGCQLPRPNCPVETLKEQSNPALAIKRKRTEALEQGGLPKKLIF
The target in assay [5] is TYK2 (Homo sapiens, UniProt P29597).
Sequence of TYK2 (P29597 whole entry): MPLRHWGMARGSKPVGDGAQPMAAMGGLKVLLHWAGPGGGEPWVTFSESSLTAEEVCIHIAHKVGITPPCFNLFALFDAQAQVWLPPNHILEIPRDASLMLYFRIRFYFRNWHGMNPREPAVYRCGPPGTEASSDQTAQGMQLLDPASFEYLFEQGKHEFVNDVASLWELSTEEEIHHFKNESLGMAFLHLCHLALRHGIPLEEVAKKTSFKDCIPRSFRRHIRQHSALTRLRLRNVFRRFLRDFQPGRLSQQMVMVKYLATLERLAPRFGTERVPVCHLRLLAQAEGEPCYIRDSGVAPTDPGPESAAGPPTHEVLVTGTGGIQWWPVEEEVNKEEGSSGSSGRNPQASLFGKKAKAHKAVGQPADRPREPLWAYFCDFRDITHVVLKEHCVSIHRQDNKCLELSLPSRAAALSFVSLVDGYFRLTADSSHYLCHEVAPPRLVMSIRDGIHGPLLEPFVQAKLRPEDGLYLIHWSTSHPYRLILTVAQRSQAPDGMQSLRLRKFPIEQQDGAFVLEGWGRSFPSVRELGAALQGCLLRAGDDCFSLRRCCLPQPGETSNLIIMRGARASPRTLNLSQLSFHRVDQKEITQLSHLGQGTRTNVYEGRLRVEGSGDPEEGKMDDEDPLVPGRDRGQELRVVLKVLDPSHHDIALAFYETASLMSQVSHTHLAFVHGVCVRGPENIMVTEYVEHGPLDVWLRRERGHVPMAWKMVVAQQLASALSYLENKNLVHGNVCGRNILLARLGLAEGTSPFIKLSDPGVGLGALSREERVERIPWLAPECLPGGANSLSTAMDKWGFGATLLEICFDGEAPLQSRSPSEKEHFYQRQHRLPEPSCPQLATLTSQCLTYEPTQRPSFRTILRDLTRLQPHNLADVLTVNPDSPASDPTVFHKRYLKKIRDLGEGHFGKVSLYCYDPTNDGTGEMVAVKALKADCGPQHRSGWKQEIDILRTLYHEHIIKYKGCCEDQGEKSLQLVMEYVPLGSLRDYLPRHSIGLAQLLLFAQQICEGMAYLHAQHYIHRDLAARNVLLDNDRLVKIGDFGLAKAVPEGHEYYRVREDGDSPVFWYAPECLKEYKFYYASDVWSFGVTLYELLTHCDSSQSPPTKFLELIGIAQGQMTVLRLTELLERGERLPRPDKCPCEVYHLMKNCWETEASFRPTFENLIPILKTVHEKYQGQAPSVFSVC
Assay [6] concerns the target CSNK1D (Homo sapiens, UniProt P48730).
Assay [7] addresses T2, PIP4K2A (Homo sapiens, UniProt P48426).
T2 sequence (P48426 1-406): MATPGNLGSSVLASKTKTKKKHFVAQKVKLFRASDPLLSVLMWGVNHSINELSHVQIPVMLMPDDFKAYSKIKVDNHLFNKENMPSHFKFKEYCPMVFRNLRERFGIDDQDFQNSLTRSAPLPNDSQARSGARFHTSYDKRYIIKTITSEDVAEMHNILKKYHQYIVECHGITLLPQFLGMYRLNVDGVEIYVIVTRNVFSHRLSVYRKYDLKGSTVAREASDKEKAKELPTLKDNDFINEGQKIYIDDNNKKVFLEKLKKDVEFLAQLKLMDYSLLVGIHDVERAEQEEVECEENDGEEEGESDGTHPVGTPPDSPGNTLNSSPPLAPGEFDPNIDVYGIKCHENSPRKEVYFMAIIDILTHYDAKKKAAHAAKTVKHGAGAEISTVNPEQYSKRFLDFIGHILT

Sequence of CSNK1D (P48730 whole entry): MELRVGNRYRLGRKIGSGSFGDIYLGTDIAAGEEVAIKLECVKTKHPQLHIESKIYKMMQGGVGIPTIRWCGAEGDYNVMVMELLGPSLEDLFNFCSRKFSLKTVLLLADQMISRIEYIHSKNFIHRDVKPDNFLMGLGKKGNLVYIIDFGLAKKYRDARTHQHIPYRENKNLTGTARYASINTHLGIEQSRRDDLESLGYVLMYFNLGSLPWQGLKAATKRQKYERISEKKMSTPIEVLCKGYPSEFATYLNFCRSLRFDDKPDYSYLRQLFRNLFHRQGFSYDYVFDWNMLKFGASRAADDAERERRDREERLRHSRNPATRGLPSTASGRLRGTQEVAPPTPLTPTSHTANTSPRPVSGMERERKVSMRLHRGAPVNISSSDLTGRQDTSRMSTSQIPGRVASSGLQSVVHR
Sequence of KIAA0999 (Q9Y2K2 whole entry): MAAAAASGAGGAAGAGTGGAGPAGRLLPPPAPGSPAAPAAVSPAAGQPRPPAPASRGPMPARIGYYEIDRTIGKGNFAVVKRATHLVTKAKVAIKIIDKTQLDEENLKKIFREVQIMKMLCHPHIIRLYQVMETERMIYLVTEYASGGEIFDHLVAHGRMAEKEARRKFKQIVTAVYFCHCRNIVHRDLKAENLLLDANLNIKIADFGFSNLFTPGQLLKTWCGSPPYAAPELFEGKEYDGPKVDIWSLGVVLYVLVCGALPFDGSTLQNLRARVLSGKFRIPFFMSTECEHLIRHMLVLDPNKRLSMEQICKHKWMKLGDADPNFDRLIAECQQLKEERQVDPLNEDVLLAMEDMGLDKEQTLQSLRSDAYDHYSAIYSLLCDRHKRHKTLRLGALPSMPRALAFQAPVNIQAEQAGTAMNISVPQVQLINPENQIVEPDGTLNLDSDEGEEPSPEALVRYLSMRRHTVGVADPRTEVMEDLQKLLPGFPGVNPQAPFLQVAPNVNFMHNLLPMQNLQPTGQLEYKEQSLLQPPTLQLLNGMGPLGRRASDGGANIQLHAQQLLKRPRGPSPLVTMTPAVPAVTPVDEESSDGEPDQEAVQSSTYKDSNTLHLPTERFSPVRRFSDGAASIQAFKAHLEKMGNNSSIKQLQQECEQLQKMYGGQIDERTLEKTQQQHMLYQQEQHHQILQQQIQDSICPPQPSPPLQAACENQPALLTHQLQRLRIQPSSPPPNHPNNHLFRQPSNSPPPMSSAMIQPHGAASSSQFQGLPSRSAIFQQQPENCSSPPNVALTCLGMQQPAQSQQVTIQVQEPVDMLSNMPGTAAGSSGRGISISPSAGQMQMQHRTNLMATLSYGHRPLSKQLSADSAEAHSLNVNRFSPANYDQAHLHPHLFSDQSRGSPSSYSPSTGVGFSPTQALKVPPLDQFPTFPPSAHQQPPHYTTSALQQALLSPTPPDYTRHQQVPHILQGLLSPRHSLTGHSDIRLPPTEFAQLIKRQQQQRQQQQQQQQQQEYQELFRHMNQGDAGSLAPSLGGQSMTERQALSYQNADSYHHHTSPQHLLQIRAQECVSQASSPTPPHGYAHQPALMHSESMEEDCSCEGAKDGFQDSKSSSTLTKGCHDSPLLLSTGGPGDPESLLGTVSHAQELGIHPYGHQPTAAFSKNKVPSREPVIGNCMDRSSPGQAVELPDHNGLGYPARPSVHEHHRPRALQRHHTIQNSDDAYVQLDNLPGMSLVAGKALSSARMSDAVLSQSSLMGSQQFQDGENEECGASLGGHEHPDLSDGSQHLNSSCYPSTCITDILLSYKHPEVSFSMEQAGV

On to `CN1CCN(c2ccc(Nc3ncc(C#N)c(Nc4ccccc4C(N)=O)n3)cc2)CC1.Cl` [TCMDC-134116], for which the Kd in assay [1] was 214 nM and 153 nM; in assay [2] it was 410 nM; in assay [3], 318 nM; in assay [4], 422 nM and 494 nM; in assay [5] it was 35.6 nM and 32.8 nM; in assay [6] it was 1150 nM. Moreover, the Kd in assay [7] was 775 nM and 987 nM.
As to `Cl.NCC1(c2nc(-c3ccc(Cl)c(O)c3)c(-c3ccncc3)[nH]2)CCCCC1` [TCMDC-141154], the Kd was 40.3 nM and 31.2 nM in assay [1]; 5660 nM and 2780 nM in assay [2]; 779 nM in assay [3]; 44 nM and 50.4 nM in assay [6].
On to `CN(C)CC(O)COc1ccc(Nc2ncc([N+](=O)[O-])c(Nc3ccccc3O)n2)cc1.O=C(O)C(F)(F)F` (centres unmarked) [TCMDC-141399], for which the Kd is 1430 nM and 4620 nM in assay [4]; 677 nM in assay [5]; 846 nM and 669 nM in assay [7].
